US7910111B2, “Inhibitors of N-ethylmaleimide sensitive factor” (The Johns Hopkins University, priority 2003, dated 2011)

How the values were obtained:
recombinant NSF [1] = biological target: T1, recombinant NSF (Cricetulus griseus, UniProt P18708); assay: NSF ATPase assay (coupled colorimetric assay); format: biochemical; conditions: recombinant NSF
T1 construct: RGS-(His)6 (N); made in house; host or cells: bacteria
Protocol: The effect of NO upon NSF activity was next explored, since NO inhibits Weibel-Palade body exocytosis, and since NSF regulates Weibel-Palade body exocytosis. The effect of NO upon the ATPase activity of NSF was first examined. DEA-NONOate was added to recombinant NSF, and the ATPase activity of NSF was measured.
(§1) The ATPase activity of NSF was measured by a coupled assay, in which ATP utilization is linked to the pyruvate kinase reaction, which generates pyruvate, which in turn is measured continuously with lactate dehydrogenase (Huang and Hackney, 1994). Recombinant NSF (0.2 μg/μl) was pre-treated with buffer or DEA or DEA-NONOate or NEM for 10 min at 22° C. ATPase reaction buffer (100 mM HEPES buffer, pH 7.0, 100 mM KCl, 10 mM MgCl2, 5 mM CaCl2, 10 mM ATP, 5 mM phosphoenol pyruvate, 50 U lactate dehydrogenase, and 50 U pyruvate kinase) was added to the mixture, followed by 10 μl of NADH (2 mg/ml in 1% sodium bicarbonate). The mixture was incubated for 10 min at 22° C., and the absorbance was measured at 340 nm.
The effect of the TAT-NSF peptide inhibitors upon the ability of NSF to hydrolyze ATP was measured. 10 μM TAT-NSF peptides was added to recombinant NSF, and the hydrolysis of ATP was measured. All 5 TAT-NSF peptides inhibited NSF ATPase activity (FIG. 8A). […] The effects of TAT-NSF81 (SEQ ID NO: 6) upon NSF were further defined. TAT-NSF81 (SEQ ID NO: 6) inhibits NSF ATPase activity in a dose-dependent manner with an IC50% between 1-10 μM (FIG. 8B).
as §1, with “TAT-NSF peptides” for “DEA or DEA-NONOate or NEM”

[2] = biological target: T2, NSF disassembly of the SNARE complex (Cricetulus griseus, UniProt P18708); format: biochemical; conditions: ATP
T2 construct: made in house; host or cells: bacteria (NSF, alpha-SNAP); BL21 cells (GST-SNAREs)
Protocol: Accordingly, recombinant NSF was pre-treated with the NO donor DEA-NONOate 1 mM for 10 min. Pre-treated NSF, α-SNAP, and detergent extracts of HAEC membranes were then mixed in the presence of 0.5 mM ATP or ATP-γS. These reactions were then fractionated by sucrose density gradient ultracentrifugation, fractions were collected from the bottom of the tube, and immunoblotted with antibody to syntaxin-4.
The effect of NO upon NSF disassembly of purified, recombinant SNARE molecules was next examined. Recombinant (His)6-NSF was pre-treated or not with 1 mM DEA-NONOate for 10 min, and then mixed with and (His)6-a-SNAP and recombinant SNARE fusion polypeptides identified in endothelial cells: GST-syntaxin-4, VAMP-3, and SNAP-23. ATP or ATP-γS was added, the mixture was precipitated with glutathione-sepharose beads, and precipitated proteins were fractionated by SDS-PAGE and immunoblotted with antibody to the NSF tag.
The disassembly activity of NSF was measured by a co-precipitation assay (Pevsner et al., 1994). […] This mixture of NSF and SNARE polypeptides was then incubated in binding buffer (4 mM HEPES pH 7.4, 0.1M NaCl, 1 mM EDTA, 3.5 mM CaCl2, 3.5 mM MgCl2, and 0.5% Nonidet P-40) and glutathione-sepharose beads for 1 h at 4° C. with rotation. The beads were washed with binding buffer 4 times, mixed with SDS-PAGE sample buffer, boiled for 3 min, and analyzed by immunoblotting.
The effect of the TAT-NSF peptide inhibitors upon the ability of NSF to separate from SNARE complexes was measured. Recombinant NSF was pre-treated with 1 μM TAT-NSF peptides, and recombinant GST-SNARE polypeptides were then added, including syntaxin-4, SNAP-23, and VAMP-3. […]
The effect of TAT-NSF peptides on NSF disassembly activity was determined. […]
TAT-NSF81 (SEQ ID NO: 6) inhibition of NSF disassembly activity was also investigated. […] ATP was added, GST-SNAREs were precipitated with glutathione-sepharose, and the precipitant was analyzed for the co-precipitation of NSF.
The disassembly activity of NSF was measured by a co-precipitation assay (Pevsner et al., 1994). […]

recombinant NSF [3] = biological target: T1, recombinant NSF; assay: S-nitrosylation of recombinant NSF (Saville reaction); format: biochemical; conditions: 1 mM DEA-NONOate
Protocol: The number of cysteine residues that are nitrosylated by exogenous NO was next measured. Recombinant NSF was exposed to increasing amounts of DEA-NONOate, and then the Saville reaction was used to measure the number of nitrosocysteine residues per molecule of NSF. NO nitrosylates NSF in a dose-dependent manner (FIG. 4C). At 1 mM DEA-NONOate, approximately 3 cysteine residues are modified by NO per each molecule of NSF.
Measurement of cysteine residues nitrosylated in vitro was performed by the Saville and Griess assays (Saura et al., 1999). Measurement of NSF nitrosylated in cultured cells was performed by immunoprecipitation with antibody to nitrosocysteine, followed by immunoblotting with antibody to NSF. Measurement of cysteine residues nitrosylated in vivo was performed as previously (Jaffrey et al., 2001; Jaffrey and Snyder, 2001).

[4] = tested on: human aortic endothelial cells (HAEC); conditions: HAEC pre-treated with increasing amounts; DEA-NONOate 10 min, DETA-NONOate 16 h, SNAP 6 h, NEM 1 h, L-NAME 16 h
Protocol: To explore the effect of NO upon granule exocytosis, thrombin induced exocytosis of Weibel-Palade bodies from human aortic endothelial cells (HAEC) which release von Willebrand's Factor (vWF) was studied. HAEC was pre-treated with an NO donor 2-(N,N-diethylamino)-diazenolate-2-oxide (DEA-NONOate) 10 mM or with DEA as a control, stimulated the cells with thrombin 1 U/ml for 1 h, and the amount of vWF released into the media was then measured. […] HAEC was then pre-treated with increasing amounts of various NO donors, including a rapidly releasing NO donor DEA-NONOate for 10 min, a slowly releasing NO donor DETA-NONOate for 16 h, or a nitrosothiol S-nitroso-penicillamine (SNAP) for 6 h; alternatively, cells were treated with NEM for 1 h.
The role of endogenous NO in the regulation of Weibel-Palade body exocytosis was then explored. HAEC was pre-treated with L-NAME for 16 h in order to inhibit endogenous NOS, and then the cells were stimulated with 1 U/ml thrombin for 1 h and vWF release was measured. […] HAEC was next pre-treated with vascular endothelial growth factor (VEGF) in order to activate endogenous NOS3. Cells were incubated with 50 ng/ml VEGF or control for 2 h, and then stimulated with thrombin.
A peptide inhibitor of NSF that crosses cell membranes was designed. This peptide, designated TAT-NSF222, includes the protein transduction domain of HIV TAT (residues 47-57) previously shown to transduce polypeptides into cells (Becker-Hapak et al., 2001), fused to a fragment of NSF (residues 222-243) previously shown to inhibit NSF (Schweizer et al., 1998). […] HAEC were then incubated for 20 min with TAT-NSF222, or with a control peptide TAT-NSF222scr that consisted of the intact TAT domain followed by the amino acid residues of NSF 222-243 in a scrambled order. HAEC were transduced with TAT-NSF peptides, treated with media or thrombin, and the amount of vWF released into the media was measured by ELISA.
Since NSF plays a general role in vesicle trafficking, permanent inactivation of NSF would slow vesicular trafficking in general. However, local production of NO at the plasma membrane and reversible nitrosylation of NSF could provide spatial regulation of NSF.
Human aortic endothelial cells (HAEC) and EGM-2 media were obtained from Clonetics (Walkersville, Md.). HAEC were pre-treated with NO donors, washed, stimulated with 1 U/mil of thrombin, and the amount of vWF released into the media was measured by an ELISA (American Diagnostica, Greenwich, Conn.). HAEC were permeabilized by incubation with 10 U/well of SLO (Sigma) in PBS pH 7.4 for 15 min at 37° C. (Walev et al., 2001). Some cells were incubated with 20-200 μg/ml of antibodies or with 100 μg/ml of recombinant NSF. Cells were then resealed by incubation with EGM-2 media for 4 h at 37° C., washed with EGM-2 media, and stimulated with thrombin as above.
The ability of TAT-NSF to affect exocytosis from cells was investigated. Endothelial cells release vWF by exocytosis when stimulated by thrombin. Accordingly, endothelial cells were incubated with increasing amounts of TAT-NSF peptides for 20 min, then treated with 1 U/ml thrombin, and the amount of vWF released into the media was measured by ELISA.
Human aortic endothelial cells (HAEC) and EGM-2 media were obtained from Clonetics (Walkersville, Md.). HAEC were pre-treated with TAT-NSF peptides for 20 min, washed, stimulated with 1 U/ml of thrombin, and the amount of vWF released into the media was measured by an ELISA (American Diagnostica, Greenwich, Conn.).

T1 sequence (P18708 whole entry): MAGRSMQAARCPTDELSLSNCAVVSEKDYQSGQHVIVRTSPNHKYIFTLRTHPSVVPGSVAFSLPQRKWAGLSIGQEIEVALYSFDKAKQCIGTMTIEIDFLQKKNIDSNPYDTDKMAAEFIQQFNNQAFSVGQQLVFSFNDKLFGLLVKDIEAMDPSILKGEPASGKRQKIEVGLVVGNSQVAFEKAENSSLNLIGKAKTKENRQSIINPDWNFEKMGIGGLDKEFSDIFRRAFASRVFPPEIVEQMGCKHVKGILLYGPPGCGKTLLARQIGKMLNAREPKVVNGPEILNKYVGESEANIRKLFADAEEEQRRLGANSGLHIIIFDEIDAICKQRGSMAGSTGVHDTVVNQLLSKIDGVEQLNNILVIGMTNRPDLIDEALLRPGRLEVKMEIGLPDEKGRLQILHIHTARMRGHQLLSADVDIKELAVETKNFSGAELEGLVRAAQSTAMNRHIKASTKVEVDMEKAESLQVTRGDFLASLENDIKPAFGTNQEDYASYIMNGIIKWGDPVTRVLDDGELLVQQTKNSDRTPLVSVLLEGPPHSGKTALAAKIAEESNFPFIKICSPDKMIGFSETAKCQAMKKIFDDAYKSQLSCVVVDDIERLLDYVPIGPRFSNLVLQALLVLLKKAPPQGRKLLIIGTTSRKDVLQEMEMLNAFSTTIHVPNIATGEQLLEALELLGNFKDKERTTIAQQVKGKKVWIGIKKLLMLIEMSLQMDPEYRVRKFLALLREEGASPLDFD
T2 sequence (P18708 whole entry): as above
T2 sequence (P81125 whole entry partner): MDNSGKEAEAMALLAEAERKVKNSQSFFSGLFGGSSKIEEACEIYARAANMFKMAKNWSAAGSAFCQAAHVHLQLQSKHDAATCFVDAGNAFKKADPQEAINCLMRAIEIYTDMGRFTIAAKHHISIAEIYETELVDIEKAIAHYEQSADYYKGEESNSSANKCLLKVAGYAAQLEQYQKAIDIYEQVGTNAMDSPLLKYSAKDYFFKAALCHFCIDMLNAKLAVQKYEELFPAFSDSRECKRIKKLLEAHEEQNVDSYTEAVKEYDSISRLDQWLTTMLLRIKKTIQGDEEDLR
T2 sequence (Q12846 whole entry partner): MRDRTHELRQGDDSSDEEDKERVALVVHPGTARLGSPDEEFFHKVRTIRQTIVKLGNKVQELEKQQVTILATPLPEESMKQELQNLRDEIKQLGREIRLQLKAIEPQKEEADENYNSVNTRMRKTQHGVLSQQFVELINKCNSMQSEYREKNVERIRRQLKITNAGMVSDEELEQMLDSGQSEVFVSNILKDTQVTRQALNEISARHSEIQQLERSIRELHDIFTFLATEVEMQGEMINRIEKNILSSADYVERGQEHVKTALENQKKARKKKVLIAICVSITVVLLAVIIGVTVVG
T2 sequence (Q15836 whole entry partner): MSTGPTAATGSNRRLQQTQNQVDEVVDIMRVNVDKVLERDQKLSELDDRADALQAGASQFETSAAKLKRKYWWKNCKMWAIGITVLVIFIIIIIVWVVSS
T2 sequence (O00161 whole entry partner): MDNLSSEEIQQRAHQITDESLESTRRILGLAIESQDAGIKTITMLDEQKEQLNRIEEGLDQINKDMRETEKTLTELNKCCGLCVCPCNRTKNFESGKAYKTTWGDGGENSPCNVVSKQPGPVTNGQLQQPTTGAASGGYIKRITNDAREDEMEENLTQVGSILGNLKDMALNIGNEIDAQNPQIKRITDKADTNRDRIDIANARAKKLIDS

## CCN(CC)[N+]([O-])=NO [DEA-NONOate, 2-(N,N-diethylamino)-diazenolate-2-oxide]
Recombinant NSF [1]
  effect on NSF ATPase activity: does not significantly inhibit NSF hydrolysis of ATP
[2]; NSF pre-treated with 1 mM for 10 min, HAEC membrane extracts
  effect on NSF disassembly of 20S SNARE complex from endothelial cell extracts: inhibits the ability of NSF to disassemble a 20S SNARE complex
[2]; recombinant NSF, α-SNAP, GST-SNAREs, TAT-NSF peptides 1 μM in Example 2
  effect on NSF disassembly activity: inhibits NSF disassembly activity
Recombinant NSF [3]
  cysteine residues modified by NO per molecule of NSF: approximately 3
[4]
  effect on thrombin induced vWF release, dose response: inhibits thrombin induced vWF release
